{"source": "patent US8735140B2", "about": "“Preservation and composition of bioprocess algae for production of lipids, seedstock, and feed” (Kuehnle AgroSystems, Inc., priority 2008, dated 2014)", "assay_type_in_all_cases": "cell-based", "key": {"Tetraselmis (KAS633)": {"tested_on": "Tetraselmis (KAS633)", "test": "Trehalose preservation, storage by air drying on paper disk", "details": "for % Viability: 0M control = 100%; for Growth: final/initial density", "description": "(§1) Flask cultures (40 ml) of cells are grown to mid-log phase with a density between 3×10^6 and 3×10^7 cells/ml, and are centrifuged. Culture medium is removed after centrifugation, resulting in more concentrated algae cells. Cells are then re-suspended in fresh medium and left overnight. Cells are centrifuged again the next day in order to remove the medium, and are then re-suspended in fresh or salt water without any nutrient. The cell density of the suspension is determined prior to storage under the various treatments. Cells in 40 ml flask cultures are grown to mid-log phase with a density of between 3×10^6 and 3×10^7 cells/ml, and are centrifuged. Culture medium is removed after centrifugation, resulting in more concentrated algae cells. Cells are then re-suspended in ideal glass solution consisting of fresh culture medium and trehalose at a concentration of 0.1M, 0.3M, and 0.5M (dihydrate trehalose 100 from Hayashibara Co. Ltd, Okayama, Japan), respectively, and left overnight with mild agitation. Cells are centrifuged again to remove the ideal glass solution the next day, and are re-suspended in fresh or salt water without any nutrient. The cell density of the resulting suspension is determined prior to storage under the various treatments. (Some cells were also treated with a 0.5M sorbitol solution). In one specific embodiment, algae cells can be stored under air-dry conditions using autoclaved sterilized filter paper disks (15 mm Whatman Grade 1, Fisher Scientific 09-805-1B). Specifically, after one piece of paper disk is placed into each well of BD Falcon 12-well tissue culture plates, 0.1 ml algae cell suspension is placed onto each disk. The liquid cell suspension is allowed to air dry in a laminar flow hood for 1 hour. After 1 hour, the plates are closed and placed under low light at ambient temperature. Algae stored under the above preservation conditions for 5 months can be subsequently rejuvenated by removing the paper disks from the 12-well plates and placing cells in 5 ml of fresh medium under light. Cell viability is determined by comparing the cell growth in control set with the experimental set. Specifically, cell counts are performed on all samples. The averaged density value (in cells per ml) for all the cultures after treatment is defined as “rejuvenation cell count.” In some samples, the percent recovery of cells immediately after storage is also determined. The formulae are illustrated as follows: Growth=(rejuvenation cell count)/(initial cell count) Cell recovery after storage=(cell density after storage)/(initial cell density), with controls set at 100% cell recovery. Viability after storage and rejuvenation in nutrient medium=(Growth of treatment)/(Growth of control)×100%, with controls set at 100% viability"}, "Chlorella (KAS603)": {"tested_on": "Chlorella (KAS603)", "test": "Trehalose preservation, storage by air drying on paper disk", "details": "for % Viability: 0M control = 100%; for Growth: final/initial density", "description": "as §1"}, "Synechocystis KAS635": {"tested_on": "Synechocystis KAS635", "test": "Trehalose preservation, storage by embedding in alginate mat", "details": "0.3M trehalose in BG11 only", "description": "(§2) Flask cultures (40 ml) of cells are grown to mid-log phase with a density between 3×10^6 and 3×10^7 cells/ml, and are centrifuged. Culture medium is removed after centrifugation, resulting in more concentrated algae cells. Cells are then re-suspended in fresh medium and left overnight. Cells are centrifuged again the next day in order to remove the medium, and are then re-suspended in fresh or salt water without any nutrient. The cell density of the suspension is determined prior to storage under the various treatments. Cells in 40 ml flask cultures are grown to mid-log phase with a density of between 3×10^6 and 3×10^7 cells/ml, and are centrifuged. Culture medium is removed after centrifugation, resulting in more concentrated algae cells. Cells are then re-suspended in ideal glass solution consisting of fresh culture medium and trehalose at a concentration of 0.1M, 0.3M, and 0.5M (dihydrate trehalose 100 from Hayashibara Co. Ltd, Okayama, Japan), respectively, and left overnight with mild agitation. Cells are centrifuged again to remove the ideal glass solution the next day, and are re-suspended in fresh or salt water without any nutrient. The cell density of the resulting suspension is determined prior to storage under the various treatments. (Some cells were also treated with a 0.5M sorbitol solution). In one specific embodiment, 2% (w/v) alginate solution (Sigma-Aldrich A-2033) and 3% CaCl2 solution (Sigma-Aldrich C1016) are prepared in salt water or fresh water medium as required by specific algae species, and autoclave sterilized. Then, 2.0 ml 2% alginate solution is pipetted into each well of a BD Falcon 12-well plate. 0.2 ml algae cell suspension is then pipetted into each well and the mixture is further stirred. The alginate-cell mixture is further sprayed with 3% CaCl2 solution in a sterile pump bottle, allowing the alginate to solidify. After solidification, plates are closed and placed under low light and at ambient temperature. After stored under the above preservation conditions for 5 months, algae cells can be rejuvenated by overlaying alginate/algae mixture with 3.0 ml sterile 5.0% NaPolyphosphate (Sigma Aldrich 305553) and allowing to the mixture sit overnight. The algae/alginate/NaPolyphosphate mixture is then removed from the 12-well plate, diluted with fresh medium (3 parts fresh medium to 1 part cell suspension) and placed under light. Cell viability is determined by comparing the cell growth in control set with the experimental set. Specifically, cell counts are performed on all samples. The averaged density value (in cells per ml) for all the cultures after treatment is defined as “rejuvenation cell count.” In some samples, the percent recovery of cells immediately after storage is also determined. The formulae are illustrated as follows: Growth=(rejuvenation cell count)/(initial cell count) Cell recovery after storage=(cell density after storage)/(initial cell density), with controls set at 100% cell recovery. Viability after storage and rejuvenation in nutrient medium=(Growth of treatment)/(Growth of control)×100%, with controls set at 100% viability"}, "Tetraselmis KAS633": {"tested_on": "Tetraselmis KAS633", "test": "Trehalose preservation, storage by embedding in alginate mat", "description": "as §2"}, "Chlorella KAS603": {"tested_on": "Chlorella KAS603", "test": "Trehalose preservation, storage by embedding in alginate mat", "description": "as §2"}, "Chlorella KAS503": {"tested_on": "Chlorella KAS503", "test": "Trehalose preservation, storage by embedding in alginate mat", "description": "as §2"}, "[1]": {"details": "0.1M trehalose in F/2, 20 weeks storage in water (no nutrients)"}, "[2]": {"details": "0.1M trehalose in F/2, 20 weeks storage"}, "[3]": {"details": "0.3M trehalose in F/2, 20 weeks storage in water (no nutrients)"}, "[4]": {"details": "0.3M trehalose in F/2, 20 weeks storage"}, "[5]": {"details": "0.5M trehalose in F/2, 20 weeks storage in water (no nutrients)"}, "[6]": {"details": "0.5M trehalose in F/2, 20 weeks storage"}, "[7]": {"details": "0.3M trehalose in F/2, 21 weeks storage and 3 weeks rejuvenation"}, "[8]": {"details": "0.3M trehalose in F/2, 21 weeks storage and 3 weeks rejuvenation in nutrient medium"}, "[9]": {"details": "0.3M trehalose in F/2, 21 weeks storage and 3 weeks rejuvenation, 0M control = 100%"}, "[10]": {"details": "0.3M trehalose in F/2, 21 weeks storage in water (no nutrients)"}, "[11]": {"details": "0.3M trehalose in F/2, 21 weeks storage, 0M control = 100%"}, "[12]": {"details": "0.3M trehalose in F/2, 21 weeks storage, density after storage/initial density"}}, "data": [{"smiles": "OC[C@H]1O[C@H](O[C@H]2O[C@H](CO)[C@@H](O)[C@H](O)[C@H]2O)[C@H](O)[C@@H](O)[C@@H]1O", "note": "[trehalose, α-D-glycosyl-α-D-glycosylpyranoside]", "values": [{"measurement": "Cell colors on paper/in medium", "setting": "Tetraselmis (KAS633); [1]", "result": "Green/green"}, {"measurement": "Final density after storage and 3 weeks rejuvenation", "setting": "Tetraselmis (KAS633); [1]", "result": "8.60 × 10^6 cells/ml"}, {"measurement": "% Viability", "setting": "Tetraselmis (KAS633); [2]", "result": "(80%)"}, {"measurement": "Growth", "setting": "Tetraselmis (KAS633); [2]", "result": 5.51}, {"measurement": "Final density after storage and 3 weeks rejuvenation", "setting": "Tetraselmis (KAS633); [3]", "result": "2.15 × 10^6 cells/ml"}, {"measurement": "% Viability", "setting": "Tetraselmis (KAS633); [4]", "result": "(19%)"}, {"measurement": "Growth", "setting": "Tetraselmis (KAS633); [4]", "result": 1.32}, {"measurement": "Cell colors on paper/in medium", "setting": "Tetraselmis (KAS633); [5]", "result": "White/clear"}, {"measurement": "Final density after storage and 3 weeks rejuvenation", "setting": "Tetraselmis (KAS633); [5]", "result": "1.915 × 10^6 cells/ml"}, {"measurement": "% Viability", "setting": "Tetraselmis (KAS633); [6]", "result": "(16%)"}, {"measurement": "Growth", "setting": "Tetraselmis (KAS633); [6]", "result": 1.10}, {"measurement": "Cell colors on paper/in medium", "setting": "Chlorella (KAS603); [1]", "result": "Green/green"}, {"measurement": "Final density after storage and 3 weeks rejuvenation", "setting": "Chlorella (KAS603); [1]", "result": "2.278 × 10^7 cells/ml"}, {"measurement": "% Viability", "setting": "Chlorella (KAS603); [2]", "result": "(133%)"}, {"measurement": "Growth", "setting": "Chlorella (KAS603); [2]", "result": 1.433}, {"measurement": "Final density after storage and 3 weeks rejuvenation", "setting": "Chlorella (KAS603); [3]", "result": "4.440 × 10^7 cells/ml"}, {"measurement": "% Viability", "setting": "Chlorella (KAS603); [4]", "result": "(144%)"}, {"measurement": "Growth", "setting": "Chlorella (KAS603); [4]", "result": 1.55}, {"measurement": "Final density after storage and 3 weeks rejuvenation", "setting": "Chlorella (KAS603); [5]", "result": "3.140 × 10^7 cells/ml"}, {"measurement": "% Viability", "setting": "Chlorella (KAS603); [6]", "result": "(133)%"}, {"measurement": "Growth", "setting": "Chlorella (KAS603); [6]", "result": 1.43}, {"measurement": "Growth", "setting": "Synechocystis KAS635; 21 weeks storage and 3 weeks rejuvenation", "result": 4.72}, {"measurement": "Cell number after storage & regrowth", "setting": "Synechocystis KAS635; 21 weeks storage and 3 weeks rejuvenation in nutrient medium", "result": "4.620 × 10^7 cells/ml"}, {"measurement": "% Viability", "setting": "Synechocystis KAS635; 21 weeks storage and 3 weeks rejuvenation, 0M control = 100%", "result": 129, "unit": "%"}, {"measurement": "Cell number after storage", "setting": "Synechocystis KAS635; 21 weeks storage in water (no nutrients)", "result": "9.798 × 10^6 cells/ml"}, {"measurement": "Cell recovery after storage, relative to control", "setting": "Synechocystis KAS635; 21 weeks storage, 0M control = 100%", "result": "(180%)"}, {"measurement": "Cell recovery after storage", "setting": "Synechocystis KAS635; 21 weeks storage, density after storage/initial density", "result": 0.29}, {"measurement": "Growth", "setting": "Tetraselmis KAS633; [7]", "result": 4.63}, {"measurement": "Cell number after storage & regrowth", "setting": "Tetraselmis KAS633; [8]", "result": "1.375 × 10^7 cells/ml"}, {"measurement": "% Viability", "setting": "Tetraselmis KAS633; [9]", "result": "(102%)"}, {"measurement": "Cell number after storage", "setting": "Tetraselmis KAS633; [10]", "result": "2.97 × 10^6 cells/ml"}, {"measurement": "Cell recovery after storage, relative to control", "setting": "Tetraselmis KAS633; [11]", "result": "(142%)"}, {"measurement": "Cell recovery after storage", "setting": "Tetraselmis KAS633; [12]", "result": 2.22}, {"measurement": "Growth", "setting": "Chlorella KAS603; [7]", "result": 2.72}, {"measurement": "Cell number after storage & regrowth", "setting": "Chlorella KAS603; [8]", "result": "4.480 × 10^7 cells/ml"}, {"measurement": "% Viability", "setting": "Chlorella KAS603; [9]", "result": "(149%)"}, {"measurement": "Cell number after storage", "setting": "Chlorella KAS603; [10]", "result": "1.646 × 10^7 cells/ml"}, {"measurement": "Cell recovery after storage, relative to control", "setting": "Chlorella KAS603; [11]", "result": "(221%)"}, {"measurement": "Growth", "setting": "Chlorella KAS503; [7]", "result": 5.46}, {"measurement": "Cell number after storage & regrowth", "setting": "Chlorella KAS503; [8]", "result": "1.012 × 10^8 cells/ml"}, {"measurement": "Cell number after storage", "setting": "Chlorella KAS503; [10]", "result": "1.860 × 10^7 cells/ml"}, {"measurement": "Cell recovery after storage, relative to control", "setting": "Chlorella KAS503; [11]", "result": "(84%)"}, {"measurement": "Cell recovery after storage", "setting": "Chlorella KAS503; [12]", "result": 1.8}]}]}
